From patent US5811445A, “Method of preventing abnormal stimulation of AT1 and AT2 receptors” (Roussel Uclaf, priority 1994, dated 1998)
Read-outs that look alike come from different tables or passages of the source.

Key:
[1] = target: T1, AT1 receptor of angiotensin II (Rattus norvegicus, UniProt P25095); assay: Test on the AT1 receptor of angiotensin II (displacement of 125I angiotensin II, rat liver membranes); type: binding; details: rat liver membrane, 125I angiotensin II, 25° C., 150 minutes; read-out: AT1 Receptor IC50
T1 construct: A fresh membrane preparation obtained from rat's liver is used; from tissue; host or cells: rat liver membranes
T1 sequence (P25095 1-359): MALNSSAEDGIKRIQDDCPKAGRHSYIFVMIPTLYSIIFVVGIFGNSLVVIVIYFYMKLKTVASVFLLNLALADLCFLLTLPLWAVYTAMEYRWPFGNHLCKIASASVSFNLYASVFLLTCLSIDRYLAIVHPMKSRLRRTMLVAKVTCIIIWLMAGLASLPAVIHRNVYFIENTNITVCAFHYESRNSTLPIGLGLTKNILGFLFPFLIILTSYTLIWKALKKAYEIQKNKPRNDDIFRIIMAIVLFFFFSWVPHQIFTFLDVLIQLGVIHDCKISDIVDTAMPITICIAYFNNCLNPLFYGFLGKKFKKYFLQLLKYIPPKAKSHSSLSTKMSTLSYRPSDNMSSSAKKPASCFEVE
Procedure: 1 - Test on the AT1 -receptor of angiotensin II
A fresh membrane preparation obtained from rat's liver is used. The tissue is ground up in a polytron in a 50 mM Tris buffer pH 7.4, the grinding is followed by 3 centrifugations at 30,000 g for 15 minutes with intermediate take up of the pellets in the Tris buffer pH 7.4.
(§1) (The product is first tested with 3×10^-5 M three times). When the tested product displaces more than 50% of the radioactivity specifically bound to the receptor, it is tested again according to a range of 7 concentrations in order to determine the concentration which inhibits by 50% the radioactivity specifically bound to the receptor. In this way the 50% inhibitory concentration is determined).
(§2) After incubation at 25° C. for 150 minutes, placing in a water-bath at 0° C. for 5 minutes, filtration under vacuum, and rinsing with Tris buffer pH 7.4, the radioactivity is counted in the presence of a scintillating solid.

[2] = tested on: angiotensin II (pressure effects); assay: Test for antagonistic activity of angiotensin II in the demedullated rat; type: in vivo, Male Sprague-Dawley rats; details: PO, inhibition of pressure effects of angiotensin II (0.75 micrograms/kg), read-out: ID50 PO
[3] = tested on: angiotensin II (pressure effects); assay: as above; type: in vivo, Male Sprague-Dawley rats; details: IV, inhibition of pressure effects of angiotensin II (0.75 micrograms/kg), read-out: ID50 IV
Procedure: 3 - Test for antagonistic activity of angiotensin II in the demedullated rat
Male Sprague-Dawley rats (250 to 350 g) are anaesthetized by an intraperitoneal injection with sodium pentobarbital (60 mg/kg). The diastolic arterial pressure is recorded by means of a heparin catheter (PE50) introduced into the left carotid of the animal, and connected to a pressure processor (Gould, Pressure Processor) via a Gould pressure sensor.
A catheter is introduced into the right jugular vein of the animal in order to allow injection of the molecules being studied.
The animal is placed under assisted respiration. A bilateral section of the vagus nerves is carried out. The rat is then demedullated.
After a sufficient stabilization period, study of the antagonism of the molecules vis-a-vis angiotensin II (Hypertensin, CIBA) is carried out in the following manner:
1 - Three consecutive injections of angiotensin II (0.75 micrograms/kg) 15 minutes apart allow a reproducible and stable pressure response to be obtained.
2 - While maintaining a periodicity of 15 minutes for the administration of angiotensin II, the molecules (0.01 to 10 mg/kg) are injected 5 minutes before the angiotensin II.
The pressure effects of angiotensin II in the presence of the antagonist are expressed as a percentage of the pressure effects of angiotensin II administered alone. The 50% inhibitory dose (ID50) of the effect studied is thus determined.
Each animal is considered as its own control.

[4] = target: T2, AT2 receptor of angiotensin II (Oryctolagus cuniculus, UniProt G1T351); assay: Test on the AT2 receptor of angiotensin II (displacement of 125I angiotensin II, rabbit uterus membranes); type: binding; details: rabbit uterus membrane (estradiol pre-treated), 125I angiotensin II, 25° C., 150 minutes; read-out: AT2 Receptor IC50
T2 construct: A fresh membrane preparation obtained from rabbit's uterus is used; from tissue; host or cells: uterus membranes of estradiol-treated rabbits
T2 sequence (G1T351 1-363): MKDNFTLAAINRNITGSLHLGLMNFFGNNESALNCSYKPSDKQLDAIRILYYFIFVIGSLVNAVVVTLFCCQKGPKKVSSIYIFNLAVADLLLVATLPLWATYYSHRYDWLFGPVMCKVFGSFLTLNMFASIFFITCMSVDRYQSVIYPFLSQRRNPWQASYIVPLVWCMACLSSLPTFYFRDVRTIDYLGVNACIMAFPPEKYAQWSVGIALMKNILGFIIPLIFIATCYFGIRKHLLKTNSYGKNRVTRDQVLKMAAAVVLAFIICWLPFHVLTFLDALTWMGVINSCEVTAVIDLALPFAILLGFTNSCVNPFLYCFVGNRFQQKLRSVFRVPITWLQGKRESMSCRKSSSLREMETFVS
Procedure: 2) Test on the AT2 receptor of angiotensin II
The tissue is ground up in a polytron in a 50 mM Tris buffer pH 7.4, and the grinding is followed by 3 centrifugations at 30,000 g for 15 minutes, with intermediate take up of the pellets in the Tris buffer pH 7.4.
The homogenate obtained is preincubated for 20 minutes at 25° C. in the presence of 10 mM dithiothreitol, then brought back to 0°-4° C.
as §1, with “The” for “(The”, “at 3.10^-5” for “with 3×10^-5”, “times.” for “times).”, “determined.” for “determined).”
as §2

IC50 [1]	IC50 [4]	SMILES	ED50 [2]	ED50 [3]
0.2 nM	2 nM	CCCc1nc(SC)c(C(=O)O)n1Cc1ccc(-c2ccccc2S(=O)(=O)NC(=O)NCC2CCCCC2)cc1 [Example 23, sodium 1-((2'-(((((cyclohexylmethyl)amino)carbonyl)amino)sulphonyl) (1,1'-biphenyl) 4-yl)methyl] 4-(methylthio) 2-propyl 1H-imidazole 5-carboxylate]	1.54 mg/kg	0.3 mg/kg
0.2 nM	5.9 nM	CCCc1nc(SC)c(C(=O)O)n1Cc1ccc(-c2ccccc2S(=O)(=O)NC(=O)NCc2ccccc2)cc1 [Example 25, 4-(methylthio) 1-[(2'-(((((phenylmethyl)amino)carbonyl)amino)sulphonyl) (1,1'-biphenyl) 4-yl)methyl] 2-propyl 1H-imidazole 5-carboxylic acid]	1.45 mg/kg	0.22 mg/kg
0.07 nM	1.7 nM	CCCc1nc(SC(F)F)c(C(=O)O)n1Cc1ccc(-c2ccccc2S(=O)(=O)NC(=O)NCC2CCCCC2)cc1 [Example 45, 1-((2'-(((((cyclohexylmethyl)amino)carbonyl)amino)sulphonyl) (1,1'-biphenyl 4-yl)methyl) 4-(difluoromethyl)thio) 2-propyl 1H-imidazole 5-carboxylic acid]	1.1 mg/kg	0.22 mg/kg
0.11 nM	0.26 nM	CCCc1nc(SC(F)F)c(C(=O)O)n1Cc1ccc(-c2ccccc2S(=O)(=O)NC(=O)NCc2ccccc2)cc1 [Example 46, 4-((difluoromethyl)thio) 1-((2'-(((((phenylmethyl)amino)carbonyl)amino)sulphonyl) (1,1'-biphenyl) 4-yl)methyl) 2-propyl 1H-imidazole 5-carboxylic acid]	2 mg/kg	0.26 mg/kg
0.03 nM		CCCc1nc(SC(F)F)c(C(=O)O)n1Cc1ccc(-c2ccccc2S(=O)(=O)NC(=O)NCCc2cccs2)cc1 [Example 47]	3 mg/kg	0.33 mg/kg
